Experimental data reported in PMC10460087, “Structure Activity Relationship and Molecular Docking of Some Quinazolines Bearing Sulfamerazine Moiety as New 3CLpro, cPLA2, sPLA2 Inhibitors” (Molecules, 2023).
Where two headings read alike, the source gives them in different places. Marks after values point to notes of the source that are not given here.

What was measured:
[1] = target: cPLA2; experiment: biochemical; set-up: species or system bee
Target sequence in this assay (P00630 34-167 limits assumed): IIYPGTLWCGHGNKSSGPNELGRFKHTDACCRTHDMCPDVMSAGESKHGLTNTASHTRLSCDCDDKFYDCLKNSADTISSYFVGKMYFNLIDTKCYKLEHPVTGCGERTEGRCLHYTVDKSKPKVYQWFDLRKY

[2] = tested on: cPLA2; type: cell-based, mouse; settings: for decrease in cPLA2 level: compared to LPS-exposed cells
[3] = tested on: IL-8; experiment: IL-8 level in LPS-treated isolated lung cells (ELISA); type: cell-based, mouse; settings: for decrease in IL-8 level: compared to LPS-exposed cells
[4] = target: SARS-CoV-2 main protease (Severe acute respiratory syndrome coronavirus 2, UniProt P0DTD1); experiment: biochemical; settings: mean ± SD; tested 0–17.5 µM
[5] = tested on: sPLA2; type: cell-based, mouse; settings: for decrease in sPLA2 level: compared to LPS-exposed cells
[6] = target: sPLA2; experiment: sPLA2 enzyme inhibition assay (Cayman Chemical kit); type: biochemical; settings: mean ± SD; tested 0–17.5 µM
Protocol: The sPLA2 screening assay was carried out according to the manufacturer’s protocol (Cayman Chemical). Briefly, 10 μL of sPLA2 was mixed with 10 μL of dimethyl sulfoxide. In a separate experiment, 10 µL of sPLA2 was added to 10 µL standard sPLA2 inhibitor (thioetheramide, 12.5 µM) and 200 µL substrate solution (diheptanoyl thiol). […] In a separate experiment, 10 μL of assay buffer was mixed with 10 μL of dimethyl sulfoxide and 200 µL of substrate solution. The reaction was initiated by the addition 10 µL of DTNB to all samples. The plate was carefully vortexed for 10 s, then covered with a plate cover and incubated for 15 min at 25 °C. Absorbance was recorded at […] using a plate reader and the IC50 was determined for the synthesized compounds (4–6 and 12) as well as the standard drugs.

[7] = tested on: NO; type: cell-based, mouse; settings: for decrease in NO level: compared to LPS-exposed cells
[8] = tested on: TNF-α; type: cell-based, mouse; settings: for decrease in TNF-α level: compared to LPS-exposed cells
[9] = target: cPLA2 (bee venom PLA2) (Apis mellifera, UniProt P00630); experiment: biochemical
Chain of cPLA2 (bee venom PLA2) (P00630 34-167 limits assumed): as above

[10] = LPS 1 μg/mL + higher dose: 4 2.84, 5 3.68, 6 1.18, 12 5.47, baicalein 3.88, ivermectin 149.39 µM
[11] = LPS 1 μg/mL + lower dose: 4 1.44, 5 2.08, 6 0.5, 12 2.39, baicalein 0.89, ivermectin 131.01 µM
[12] = higher dose: 4 2.84, 5 3.68, 6 1.18, 12 5.47, baicalein 3.88, ivermectin 149.39 µM
[13] = lower dose: 4 1.44, 5 2.08, 6 0.5, 12 2.39, baicalein 0.89, ivermectin 131.01 µM

Molecule | cPLA2 level [2, 10] | cPLA2 level [2, 11] | decrease in cPLA2 level [2, 12] | decrease in cPLA2 level [2, 13] | IL-8 level [3, 10] | IL-8 level [3, 11] | decrease in IL-8 level [3, 12] | decrease in IL-8 level [3, 13] | sPLA2 level [5, 10] | sPLA2 level [5, 11] | decrease in sPLA2 level [5, 12] | decrease in sPLA2 level [5, 13] | IC50 [6] | NO level [7, 10] | NO level [7, 11] | decrease in NO level [7, 12] | decrease in NO level [7, 13] | TNF-α level [8, 10] | TNF-α level [8, 11] | decrease in TNF-α level [8, 12] | also measured
CCOC(=O)c1nn2c(=O)c3ccccc3nc2n1-c1ccc(S(=O)(=O)Nc2nccc(C)n2)cc1 [Compound 12] | 722.24 ± 30.40 ^e dpm/mL | 1348.21 ± 50.26 dpm/mL | 74.37% | 52.15% | 3.21 ± 0.21 ^f ng/mL | 3.84 ± 0.29 ^g ng/mL | 44.08% | 33.10% | 40.61 ± 4.19 ^f pg/mL | 85.23 ± 6.51 ^l pg/mL | 68.66% | 34.22% | 4450 ± 7 nM | 30.94 ± 3.76 ^f µmol/L | 50.36 ± 3.96 ^h µmol/L | 54.89% | 26.57% | 551.52 ± 24.65 ^f pg/mL | 748.98 ± 31.22 ^j pg/mL | 43.75% | IC50 [1]: 2390 ± 46 nM; IC50 [4]: 5.47 ± 0.018 µM; decrease in TNF-α level [8, 13]: 23.59%
O=c1cc(-c2ccccc2)oc2cc(O)c(O)c(O)c12 [Baicalein, reference compound] | 616.34 ± 28.34 ^c dpm/mL | 903.43 ± 35.71 ^g dpm/mL | 78.13% | 67.33% | 1.42 ± 0.13 ^c ng/mL | 2.06 ± 0.23 ^g ng/mL | 75.26% | 64.11% | 24.77 ± 2.73 ^c pg/mL | 54.27 ± 3.46 ^h pg/mL | 80.88% | 58.11% | 890 ± 41 nM | 20.53 ± 1.89 ^c µmol/L | 32.01 ± 4.81 ^f µmol/L | 70.07% | 53.33% | 431.21 ± 32.88 ^c pg/mL | 639.55 ± 37.84 ^g pg/mL | 56.01% | IC50 [1]: 3880 ± 13 nM; decrease in TNF-α level [8, 13]: 34.76%
Cc1ccnc(NS(=O)(=O)c2ccc(Nc3nc4ccccc4c(=O)n3N)cc2)n1 [Compound 4] | 671.05 ± 29.17 ^d dpm/mL | 1077.77 ± 68.61 ^i dpm/mL | 76.19% | 61.75% | 2.17 ± 0.07 ^d ng/mL | 2.55 ± 0.26 ^c ng/mL | 62.20% | 55.57% | 29.10 ± 2.52 ^d pg/mL | 57.93 ± 2.92 ^i pg/mL | 77.54% | 55.29% | 2840 ± 26 nM | 25.18 ± 2.98 ^d µmol/L | 37.27 ± 3.00 ^c µmol/L | 63.29% | 45.66% | 481.36 ± 39.63 ^d pg/mL | 654.20 ± 22.28 ^h pg/mL | 50.90% | IC50 [1]: 1440 ± 9 nM; IC50 [4]: 2.012 ± 0.004 µM; decrease in TNF-α level [8, 13]: 33.36%
Ivermectin [reference compound] | 1002.65 ± 90.98 ^h dpm/mL | 1172.50 ± 72.55 ^j dpm/mL | 64.41% | 58.39% | 3.10 ± 0.1 ^f ng/mL | 3.77 ± 0.62 ^g ng/mL | 45.99% | 34.32% | 62.31 ± 1.41 ^j pg/mL | 106.13 ± 9.81 ^m pg/mL | 51.41% | 18.09% | 110000 ± 3270 nM | 50.74 ± 3.34 ^h µmol/L | 62.01 ± 4.81 ^i µmol/L | 26.02% | 9.59% | 714.29 ± 28.09 ^g pg/mL | 870.22 ± 40.62 ^k pg/mL | 27.13% | IC50 [9]: 138 ± 1.54 µM; IC50 [4]: 42.4 ± 2.5 µM; decrease in TNF-α level [8, 13]: 11.23%
Cc1ccnc(NS(=O)(=O)c2ccc(N3CC(=O)Nn4c3nc3ccccc3c4=O)cc2)n1 [Compound 6] | 536.93 ± 23.50 ^b dpm/mL | 830.11 ± 34.00 ^f dpm/mL | 80.94% | 70.54% | 1.17 ± 0.06 ^b ng/mL | 1.79 ± 0.14 ^d ng/mL | 79.62% | 68.82% | 18.29 ± 2.35 ^b pg/mL | 43.44 ± 2.74 ^g pg/mL | 85.88% | 66.47% | 1020 ± 39 nM | 19.02 ± 1.5 ^b µmol/L | 24.67 ± 2.70 ^e µmol/L | 72.27% | 64.03% | 424.25 ± 36.86 ^f pg/mL | 582.31 ± 52.25 ^e pg/mL | 56.72% | IC50 [1]: 500 ± 8 nM; IC50 [4]: 1.18 ± 0.025 µM; decrease in TNF-α level [8, 13]: 40.59%
COc1cc(C=Nn2c(Nc3ccc(S(=O)(=O)Nc4nccc(C)n4)cc3)nc3ccccc3c2=O)ccc1O [Compound 5] | 719.32 ± 37.15 ^e dpm/mL | 1258.99 ± 35.57 ^k dpm/mL | 74.48% | 55.32% | 2.40 ±0.09 ^e ng/mL | 2.74 ± 0.32 ^c ng/mL | 58.19% | 52.26% | 34.17 ± 1.73 ^e pg/mL | 72.13 ± 3.94 ^k pg/mL | 73.63% | 44.33% | 2730 ± 8 nM | 29.37 ± 2.21 ^f µmol/L | 45.75 ± 2.87 ^g µmol/L | 57.18% | 33.29% | 524.98 ± 19.11 ^e pg/mL | 671.91 ± 23.11 ^i pg/mL | 46.44% | IC50 [1]: 2080 ± 16 nM; IC50 [4]: 3.68 ± 2.35 µM; decrease in TNF-α level [8, 13]: 31.26%
